Activity calls are given as the source filed them. No cut-off for these calls is given here.
What was measured:
Tubulin (Homo sapiens) [1] = target: T1, Tubulin (Homo sapiens) (UniProt P68371+Q9H4B7+P0DPH7+P68366+Q13509+Q71U36+P04350+Q3ZCM7+P07437+P68363+Q9BQE3+Q6PEY2+Q13885+Q9BVA1+Q9BUF5); experiment: Inhibition of tubulin polymerization (unknown origin) assessed as reduction in intracellular AC-alpha-tubulin at 50 to 200 nM measured for 6 hrs by […] Western blot analysis; assay type: cell-based; conditions: PC-3, dose 50-200 nM
RM1 = experiment: Antitumor immunity against mouse RM1 cells homografted in C57BL/6 mouse model assessed as increase in tumor infiltrating helper T lymphocytes in spleen at 5 to 10 mg/kg, iv administered every two days for 14 days by flow cytometry analysis; assay type: functional, organism-based; conditions: dose 5-10 mg/kg, time 14.0 day
PC-3 [2] = experiment: Induction of immunogenic cell death in human PC-3 cells assessed as effect on CRT expression at 50 to 200 nM; assay type: functional, cell-based; conditions: dose 50-200 nM
PC-3 [3] = experiment: Induction of cell cycle arrest in human PC-3 cells assessed as increase in histone H3at Ser10 residues at 50 to 200 nM incubated for 24 hrs by DAPI staining based analysis; assay type: functional; conditions: dose 50-200 nM
[4] = target: Tubulin beta (Homo sapiens) (UniProt P68371+Q9H4B7+Q13509+P04350+Q3ZCM7+P07437+Q13885+Q9BVA1+Q9BUF5+A6NNZ2); experiment: Binding affinity to beta-tubulin colchicine binding site in human PC-3 cells assessed as inhibition of EBI-beta-tubulin adduct band formation preincubated for 2 hrs followed by EBI addition measured after 1.5 hrs by EBI competition based Western blotting analysis; assay type: cell-based; conditions: dose 1-100 µM, time 3.5 hrs
PC-3 [5] = experiment: Induction of cell cycle arrest in human PC-3 cells assessed as accumulation of cells at G2/M phase at 50 nM incubated for 24 hrs by flow cytometry analysis (reference value: 19.5%); assay type: functional
[6] = Toxicity in ICR mouse assessed as effect on ALT level at 10 mg/kg, ip measured for 14 days; assay type: organism-based; conditions: in vivo, 336 h, time 14 day
PC-3 [7] = experiment: Induction of apoptosis in human PC-3 cells assessed as late apoptotic cells at 100 nM measured after 24 hrs by annexin V-FITC and PI staining based flow cytometry analysis (reference value: 2.37%); assay type: functional
PC-3 [8] = experiment: Induction of apoptosis in human PC-3 cells assessed as increase in bax level at 50 to 200 nM incubated for 24 hrs by Western blot analysis; assay type: functional, cell-based; conditions: dose 50-200 nM
PC-3 [9] = experiment: Induction of apoptosis in human PC-3 cells assessed as viable cells at 100 nM measured after 24 hrs by annexin V-FITC and PI staining based flow cytometry analysis (reference value: 90.6%); assay type: functional; conditions: read-out: Activity
PC-3 [10] = experiment: Induction of cell cycle arrest in human PC-3 cells assessed as accumulation of cells at S phase at 50 nM incubated for 24 hrs by flow cytometry analysis (reference value: 31.3%); assay type: functional
[11] = Antitumor immunity against mouse RM1 cells homografted in C57BL/6 mouse model assessed as increase in tumor infiltrating helper T lymphocytes at 5 mg/kg, iv administered every two days for 14 days by flow cytometry analysis (reference value: 6.59%); assay type: functional; conditions: time 14 day
[12] = Antitumor immunity against mouse RM1 cells homografted in C57BL/6 mouse model assessed as increase in tumor infiltrating helper T lymphocytes at 10 mg/kg, iv administered every two days for 14 days by flow cytometry analysis (reference value: 6.59%); assay type: functional; conditions: time 14 day
Tubulin (Homo sapiens) [13] = target: T1, Tubulin (Homo sapiens); experiment: Disruption of microtubule network in human PC-3 cells at 50 to 200 nM incubated for 6 to 24 hrs by immunofluorescence staining based confocal microscopy analysis relative to control; assay type: cell-based; conditions: dose 50-200 nM, time 6-24 hrs
PC-3 [14] = experiment: Inhibition of V-ATPase activity in lysosomes of human PC-3 cells assessed as decrease in fluorescence at 50 to 200 nM incubated for 24 hrs by Lyso tracker red staining based inverted fluorescent microscopic analysis; assay type: subcellular; conditions: Lysosome, dose 50-200 nM
PC-3 [15] = experiment: Induction of apoptosis in human PC-3 cells assessed as upregulation of cleaved caspase-3 level at 50 to 200 nM incubated for 24 hrs by Western blot analysis; assay type: functional, cell-based; conditions: dose 50-200 nM
Cell membrane = experiment: Induction of mitochondrial membrane potential loss in human PC-3 cells assessed as increase in green fluorescence at 50 to 200 nM incubated for 24 hrs by JC-1 staining based confocal microscopy analysis; conditions: dose 50-200 nM
PC-3 [16] = experiment: Induction of apoptosis in human PC-3 cells assessed as viable cells at 200 nM measured after 24 hrs by annexin V-FITC and PI staining based flow cytometry analysis (reference value: 90.6%); assay type: functional; conditions: read-out: Activity
PC-3 [17] = experiment: Induction of apoptosis in human PC-3 cells assessed as increase in Cl-PARP level at 50 to 200 nM incubated for 24 hrs by Western blot analysis; assay type: functional, cell-based; conditions: dose 50-200 nM
[18] = Toxicity in ICR mouse assessed as effect on kidney at 10 mg/kg, ip measured for 14 days by H and E staining based analysis; assay type: organism-based; conditions: in vivo, 336 h, time 14 day
[19] = Antitumor activity against mouse RM1 cells homografted in C57BL/6 mouse model assessed as tumor growth inhibition at 5 mg/kg, iv administered every two days for 14 days by vernier caliper based analysis relative to control; assay type: functional; conditions: RM1, 336 h, time 14 day, read-out: TGI
HUVEC = experiment: Disruption of vasculature in HUVEC cells assessed as interruption of tubelike network formation incubated for 6 hrs by inverted fluorescence microscope analysis; assay type: functional, cell-based; conditions: Homo sapiens, dose 50-200 nM
[20] = Toxicity in ICR mouse assessed as effect on CRE level at 10 mg/kg, ip measured for 14 days; assay type: organism-based; conditions: in vivo, 336 h, time 14 day
PC-3 [21] = experiment: Induction of immunogenic cell death in human PC-3 cells assessed as decrease in HMGB1 content in tumor cells at 50 to 200 nM; assay type: functional, cell-based; conditions: dose 50-200 nM
A549 = experiment: Antiproliferative activity against human A549 cells assessed as inhibition of cell growth after 72 hrs by MTT assay; assay type: functional, cell-based; conditions: A549, 72 h
Tubulin (Homo sapiens) [22] = target: T1, Tubulin (Homo sapiens); experiment: (§1) Inhibition of tubulin polymerization (unknown origin) measured every 60 secs for 60 mins by microplate reader based analysis; assay type: protein-complex assay; conditions: dose 1.25-40 µM
Tubulin = experiment: as §1; assay type: protein-complex assay, Homo sapiens
PC-3 [23] = experiment: Induction of cell cycle arrest in human PC-3 cells assessed as accumulation of cells at S phase at 200 nM incubated for 24 hrs by flow cytometry analysis (reference value: 31.3%); assay type: functional
[24] = Anticancer activity against mouse RM1 cells assessed as increase in mean fluorescence intensity at 400 nM measured after 24 hrs by flow cytometry analysis (reference value: 7.40+/-3.96 ); assay type: functional
PC-3 [25] = experiment: Induction of apoptosis in human PC-3 cells assessed as necrotic cells at 50 nM measured after 24 hrs by annexin V-FITC and PI staining based flow cytometry analysis (reference value: 6.01%); assay type: functional
[26] = Toxicity in ICR mouse assessed as effect on lymphocytes at 10 mg/kg, ip measured for 14 days; assay type: organism-based; conditions: in vivo, 336 h, time 14 day
PC-3 [27] = experiment: Induction of cell cycle arrest in human PC-3 cells assessed as reduction in cdc25c phosphorylation at ser216 residue at 50 to 200 nM incubated for 24 hrs by DAPI staining based analysis; assay type: functional; conditions: dose 50-200 nM
PC-3 [28] = experiment: Induction of apoptosis in human PC-3 cells assessed as increase in p-bim-EL level at 50 to 200 nM incubated for 24 hrs by Western blot analysis; assay type: functional, cell-based; conditions: dose 50-200 nM

COc1cc(-c2nc(C(N)=O)cc3cc4c(cc23)OCCO4)cc(Br)c1OC
inhibition (Tubulin (Homo sapiens) [1]): Active
Activity (RM1): Active
Activity (PC-3 [2]): Active
Activity (PC-3 [3]): Active
Activity [4]: Dose-Dependent Effect
Activity (PC-3 [5]): 30.9%
Activity [6]: Non-Toxic
Activity (PC-3 [7]): 10.3%
Activity (PC-3 [8]): Active
viability at 0.1 µM (PC-3 [9]): 61.7%
Activity (PC-3 [10]): 29.3%
Activity [11]: 10.9%
Activity [12]: 14.2%
Activity (Tubulin (Homo sapiens) [13]): Active
inhibition (PC-3 [14]): Active
Activity (PC-3 [15]): Active
Activity (Cell membrane): Active
viability at 0.2 µM (PC-3 [16]): 50.9%
Activity (PC-3 [17]): Active
Activity [18]: Non-Toxic
inhibition in vivo at 5 mg/kg [19]: 61.6%
Activity (HUVEC): Active
Activity [20]: Non-Toxic
Activity (PC-3 [21]): Active
IC50 (A549): 0.09 µM
inhibition (Tubulin (Homo sapiens) [22]): Dose-Dependent Effect
IC50 (Tubulin): 6.33 µM
Activity (PC-3 [23]): 17.1%
Flu intensity [24]: 151.3
Activity (PC-3 [25]): 6.91%
Activity [26]: Non-Toxic
Activity (PC-3 [27]): Active
Activity (PC-3 [28]): Active

— ChEMBL document CHEMBL5528053, “Discovery of Novel Isoquinoline Analogues as Dual Tubulin Polymerization/V-ATPase Inhibitors with Immunogenic Cell Death Induction” (J Med Chem, 2024)
